Assay results as given in patent US7816408B2, “Calcium receptor active compounds” (NPS Pharmaceuticals, Inc., priority 2002, dated 2010).

Tests used:
[1] = target: T1, human calcium receptor (Homo sapiens, UniProt P41180); assay: Activity on calcium receptors: fluo-3 fluorescence in HEK293 cells transfected with human calcium receptor gene; assay type: cell-based; conditions: HEK293 cells transfected with plasmid pHuPCaR4.0 (human calcium receptor gene), loaded with fluo-3; 1 mM CaCl2, 1 mM MgCl2
T1 construct: expressed in transfected cells; host or cells: HEK293
T1 sequence (P41180 20-1078): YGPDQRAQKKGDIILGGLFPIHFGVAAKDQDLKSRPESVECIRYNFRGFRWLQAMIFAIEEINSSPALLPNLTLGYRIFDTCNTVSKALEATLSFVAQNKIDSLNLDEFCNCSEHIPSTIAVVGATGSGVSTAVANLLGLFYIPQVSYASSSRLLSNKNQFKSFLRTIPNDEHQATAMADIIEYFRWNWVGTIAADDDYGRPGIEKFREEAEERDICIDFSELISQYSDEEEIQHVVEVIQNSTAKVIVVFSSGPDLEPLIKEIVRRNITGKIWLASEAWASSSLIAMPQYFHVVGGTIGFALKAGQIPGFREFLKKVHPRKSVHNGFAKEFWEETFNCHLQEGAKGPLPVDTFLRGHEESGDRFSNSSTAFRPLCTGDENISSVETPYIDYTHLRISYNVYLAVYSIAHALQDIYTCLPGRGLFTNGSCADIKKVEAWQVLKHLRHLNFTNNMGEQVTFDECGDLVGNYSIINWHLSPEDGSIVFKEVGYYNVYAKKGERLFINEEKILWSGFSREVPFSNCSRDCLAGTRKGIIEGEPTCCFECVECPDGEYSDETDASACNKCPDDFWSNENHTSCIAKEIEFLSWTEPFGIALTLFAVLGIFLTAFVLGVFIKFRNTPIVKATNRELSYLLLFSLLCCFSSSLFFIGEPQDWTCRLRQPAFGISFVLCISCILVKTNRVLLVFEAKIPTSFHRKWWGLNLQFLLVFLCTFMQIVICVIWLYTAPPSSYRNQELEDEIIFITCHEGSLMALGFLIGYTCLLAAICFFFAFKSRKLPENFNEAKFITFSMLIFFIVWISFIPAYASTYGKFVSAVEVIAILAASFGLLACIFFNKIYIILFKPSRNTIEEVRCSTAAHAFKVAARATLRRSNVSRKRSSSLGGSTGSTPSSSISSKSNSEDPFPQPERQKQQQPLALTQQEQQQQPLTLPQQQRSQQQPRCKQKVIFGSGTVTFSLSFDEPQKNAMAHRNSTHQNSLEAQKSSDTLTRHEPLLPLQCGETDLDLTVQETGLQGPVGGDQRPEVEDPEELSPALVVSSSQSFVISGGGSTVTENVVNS
Summary of the method: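 HEK293 cells transfected with human calcium receptor plasmid, loaded 1 h at 37 °C with about 5 μM fluo-3/AM. Cells then rinsed into HEPES-buffered HBSS with 1 mM CaCl2 and 1 mM MgCl2. Fluorescence read at 485/540 nm after compound addition.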

[2] = test system: normal male SD rats; assay: Plasma Ca^2+ level of rats after single oral administration; assay type: in vivo; conditions: rat, mean of six animals; for Plasma Ca^2+ (mmol/l) 1 hr: 1 hr after single oral dose 30 μmol/kg; for Plasma Ca^2+ (mmol/l) 2 hr: 2 hr after single oral dose 30 μmol/kg; for Plasma Ca^2+ (mmol/l) 4 hr: 4 hr after single oral dose 30 μmol/kg; for Plasma Ca^2+ (mmol/l) 8 hr: 8 hr after single oral dose 30 μmol/kg; for Plasma Ca^2+ (mmol/l) 0 hr: 0 hr = before oral administration of 30 μmol/kg; for Plasma Ca^2+ (mmol/l) 24 hr: 24 hr after single oral dose 30 μmol/kg
Summary of the method: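 Normal male SD rats (n=6/group) received a single oral dose of 30 μmol/kg in 10% cyclodextrin or, for some compounds, 1% sodium-CMC; vehicle controls received 2.5 ml/kg. Tail blood was drawn pre-dose and at 30 min and 1, 2, 4, 8 and 24 h for plasma Ca^2+ and serum PTH. PTH was compared with vehicle by Steel's test.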

[3] = vehicle 10% cyclodextrin (** 1% sodium-CMC)

| Structure (SMILES) | EC50 [1] | Plasma Ca^2+ (mmol/l) 1 hr [2, 3] | Plasma Ca^2+ (mmol/l) 2 hr [2, 3] | Plasma Ca^2+ (mmol/l) 4 hr [2, 3] | Plasma Ca^2+ (mmol/l) 8 hr [2, 3] | Plasma Ca^2+ (mmol/l) 27 hr (footnote *b, 24 hr) ([2]; 27 hr after single oral dose 30 μmol/kg, vehicle 10% cyclodextrin (** 1% sodium-CMC)) | Plasma Ca^2+ (mmol/l) 0 hr [2, 3] | Plasma Ca^2+ (mmol/l) 24 hr [2, 3] | Plasma Ca^2+ (mmol/l) 48 hr ([2]; 48 hr after single oral dose 30 μmol/kg, vehicle 10% cyclodextrin) | Plasma Ca^2+ (mmol/l) 23 hr (footnote *c, 24 hr column) ([2]; 23 hr after single oral dose 30 μmol/kg, vehicle 10% cyclodextrin (** 1% sodium-CMC)) |
| --- | --- | --- | --- | --- | --- | --- | --- | --- | --- | --- |
| COc1cccc(SCCCCN[C@H](C)c2cccc3ccccc23)c1 [Compound K-2269, N-{4-[(3-methoxyphenyl)thio]butyl}-N-[(1R)-1-(1-naphthyl)ethyl]amine] | 71 nM | 1.152 mmol/L | 1.140 mmol/L | 1.097 mmol/L | 1.173 mmol/L | – | – | – | – | – |
| CC(NCCSc1cc(Cl)ccc1Cl)c1cccc(OCc2ccc(Cl)cc2)c1 (racemic) [Compound K-2258, (±)-N-(1-(3-(4-chlorobenzyloxy)phenyl)ethyl)-2-(2′,5′-dichlorophenylthio)ethylamine] | 380 nM | 1.317 mmol/L | 1.227 mmol/L | 1.133 mmol/L | 1.207 mmol/L | – | – | – | – | – |
| C[C@@H](NCCCSc1ccc(C(F)(F)F)cc1)c1cccc2ccccc12 [Compound K-2240, N-[(1R)-1-(1-naphthyl)ethyl]-N-(3-{[4-(trifluoromethyl)phenyl]thio}propyl)amine] | 360 nM | 1.302 mmol/L | 1.272 mmol/L | 1.175 mmol/L | 1.230 mmol/L | – | – | – | – | – |
| C[C@@H](NCCC(=O)N(Cc1ccccc1)Cc1ccc(Cl)c(Cl)c1)c1cccc2ccccc12 [Compound K-2250, N1-benzyl-N1-(3,4-dichloro-benzyl)-3-{[(1R)-1-(1-naphthyl)ethyl]amino}propanamide] | 76 nM | 1.327 mmol/L | 1.225 mmol/L | 1.122 mmol/L | 1.203 mmol/L | – | – | – | – | – |
| C[C@@H](NCCCCCSc1cc(Cl)c(Cl)cc1Cl)c1cccc2ccccc12 [Compound K-2282, N-[(1R)-1-(1-naphthyl)ethyl]-N-{5-[(2,4,5-trichlorophenyl)thio]pentyl}amine] | 340 nM | 1.425 mmol/L | 1.298 mmol/L | 1.168 mmol/L | 1.078 mmol/L | 1.230*^b mmol/l | – | – | – | – |
| COc1cccc(SCCCCCN[C@H](C)c2cccc3ccccc23)c1 [Compound K-2279, N-{[5-(3-methoxyphenyl)thio]pentyl}N-[(1R)-1-(1-naphthyl)ethyl]amine] | 630 nM | 1.200 mmol/L | 1.155 mmol/L | 1.130 mmol/L | 1.210 mmol/L | – | 1.443 mmol/L | 1.445 mmol/L | – | – |
| C[C@@H](NCCCCSc1ccc(OC(F)(F)F)cc1)c1cccc2ccccc12 [Compound K-2287, N-[(1R)-1-(1-naphthyl)ethyl]-N-(4-{[4-(trifluoromethoxy)phenyl)thio]butyl)amine] | 62 nM | 1.180 mmol/L | 1.042 mmol/L | 0.955 mmol/L | 0.950 mmol/L | – | – | 1.200 mmol/L | 1.392 mmol/L | – |
| C[C@@H](NCCCCCCSc1ccc(OC(F)(F)F)cc1)c1cccc2ccccc12 [Compound K-2301] | 800 nM | 1.237 mmol/L | 1.165 mmol/L | 1.077 mmol/L | 1.075 mmol/L | – | 1.397 mmol/L | – | – | 1.350*^c mmol/l |
